pIC50: −log10 of the molar value.
Biological target: T1, HCV1b NS5B polymerase delta 21 (Hepatitis C virus genotype 1b, UniProt P26663)
T1 construct: purified HCV1b NS5B polymerase delta 21
Test: RNA-Dependent RNA HCV NS5B (Polymerase) Assay and IC50 Determination
Type: biochemical
Conditions: not given
How it was run: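 Purified NS5B Δ21 (0.6 μg) with polyA:U16 template, 10 μM UTP plus α-32P UTP in Tris-HCl pH 7.5, 5 mM MgCl2, 0.5% Triton X-100, 60 min at 23°C with varied compound concentrations. Radiolabelled RNA captured on filters, quantified by phosphorimaging; IC50 from triplicate assays.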

T1 sequence (P26663 2420-2989): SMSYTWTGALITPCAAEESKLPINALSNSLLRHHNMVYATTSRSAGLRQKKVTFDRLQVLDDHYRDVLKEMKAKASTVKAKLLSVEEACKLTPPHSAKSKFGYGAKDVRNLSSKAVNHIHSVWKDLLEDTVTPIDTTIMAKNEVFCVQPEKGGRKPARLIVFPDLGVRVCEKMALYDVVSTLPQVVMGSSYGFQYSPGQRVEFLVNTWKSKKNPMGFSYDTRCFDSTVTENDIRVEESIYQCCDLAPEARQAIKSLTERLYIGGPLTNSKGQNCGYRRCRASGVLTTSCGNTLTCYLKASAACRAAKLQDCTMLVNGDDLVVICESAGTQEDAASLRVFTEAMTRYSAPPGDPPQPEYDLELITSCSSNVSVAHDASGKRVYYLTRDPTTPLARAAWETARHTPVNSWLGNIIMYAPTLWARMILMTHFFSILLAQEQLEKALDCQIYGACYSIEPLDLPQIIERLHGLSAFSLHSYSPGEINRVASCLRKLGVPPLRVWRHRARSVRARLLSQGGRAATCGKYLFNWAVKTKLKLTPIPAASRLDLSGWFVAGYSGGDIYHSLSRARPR

Row | Structure (SMILES) | pIC50
1 | CCCC(=O)OCOC(=O)c1sc(-c2ccc(NC(=O)c3cscn3)cc2)cc1C1=C(C2CCC(C)CC2)CN(C)CC1 (stereo not shown) [Example 105, 3-[1-Methyl-5-(4-methyl-cyclohexyl)-1,2,3,6-tetrahydro-pyridin-4-yl]-5-{4-[(thiazole-4-carbonyl)-amino]-phenyl}-thiophene-2-carboxylic acid butyryloxymethyl ester] | 5.00 to 5.52
2 | CC1CCC(C2=C(c3cc(-c4ccccc4)sc3C(=O)O)CCN(C(C)C)C2)CC1 (stereo not shown) [Example 009, 3-[1-Isopropyl-5-(4-methyl-cyclohexyl)-1,2,3,6-tetrahydro-pyridin-4-yl]-5-phenyl-thiophene-2-carboxylic acid] | 5.00 to 5.52
3 | CN1CCC(c2cc(-c3ccccc3)sc2C(=O)O)=C(C2CCC(C(F)(F)F)CC2)C1 (stereo not shown) [Example 064, 3-[1-Methyl-5-(4-trifluoromethyl-cyclohexyl)-1,2,3,6-tetrahydro-pyridin-4-yl]-5-phenyl-thiophene-2-carboxylic acid] | < 5.00
4 | CC1CCC(C2=C(c3cc(-c4ccc(/C=C/c5cscn5)cc4)sc3C(=O)O)CCN(C)C2)CC1 (stereo not shown) [Example 158, 3-[1-Methyl-5-(4-methyl-cyclohexyl)-1,2,3,6-tetrahydro-pyridin-4-yl]-5-[4-(2-thiazol-4-yl-vinyl)-phenyl]-thiophene-2-carboxylic acid] | < 5.00
5 | CCN1CCC(c2cc(C#CC3CC3)sc2C(=O)O)=C(C2CCC(C)CC2)C1 (stereo not shown) [Example 017, 5-Cyclopropylethynyl-3-[1-ethyl-5-(4-methyl-cyclohexyl)-1,2,3,6-tetrahydro-pyridin-4-yl]-thiophene-2-carboxylic acid] | > 5.52
6 | CC1CCC(C2=C(c3cc(C#CC4(c5ccccc5)CC4)sc3C(=O)O)CCN(C)C2)CC1 (stereo not shown) [Example 173, 3-[1-Methyl-5-(4-methyl-cyclohexyl)-1,2,3,6-tetrahydro-pyridin-4-yl]-5-(1-phenyl-cyclopropylethynyl)-thiophene-2-carboxylic acid] | < 5.00
7 | CC1CCC(C2=C(c3cc(-c4ccccc4)sc3C(=O)O)CCN(CC3CC3)C2)CC1 (stereo not shown) [Example 006, 3-[1-Cyclopropylmethyl-5-(4-methyl-cyclohexyl)-1,2,3,6-tetrahydro-pyridin-4-yl]-5-phenyl-thiophene-2-carboxylic acid] | > 5.52
8 | CCN1CCC(c2cc(-c3cccc(NC(=O)c4cscn4)c3)sc2C(=O)O)=C(C2CCC(C)CC2)C1 (stereo not shown) [Example 025, 3-[1-Ethyl-5-(4-methyl-cyclohexyl)-1,2,3,6-tetrahydro-pyridin-4-yl]-5-{3-[(thiazole-4-carbonyl)-amino]-phenyl}-thiophene-2-carboxylic acid] | < 5.00
9 | CC1CCC(C2=C(c3cc(-c4ccccc4)sc3C(=O)O)CCN(Cc3cncnc3)C2)CC1 (stereo not shown) [Example 157, 3-[5-(4-Methyl-cyclohexyl)-1-pyrimidin-5-ylmethyl-1,2,3,6-tetrahydro-pyridin-4-yl]-5-phenyl-thiophene-2-carboxylic acid] | < 5.00
10 | CC1CCC(C2=C(c3cc(C#CC4CC4)sc3C(=O)O)CCN(Cc3ccccn3)C2)CC1 (stereo not shown) [Example 134, 5-Cyclopropylethynyl-3-[5-(4-methyl-cyclohexyl)-1-pyridin-2-ylmethyl-1,2,3,6-tetrahydro-pyridin-4-yl]-thiophene-2-carboxylic acid] | > 5.52
11 | CCN1CCC(c2cc(C#CC(C)(C)N(C)C)sc2C(=O)O)=C(C2CCC(C)CC2)C1 (stereo not shown) [Example 023, 5-(3-Dimethylamino-3-methyl-but-1-ynyl)-3-[1-ethyl-5-(4-methyl-cyclohexyl)-1,2,3,6-tetrahydro-pyridin-4-yl]-thiophene-2-carboxylic acid] | > 5.52
12 | CC1CCC(C2=C(c3cc(-c4ccc(C5=CC6N=CC=CC6O5)cc4)sc3C(=O)O)CCN(C)C2)CC1 (stereo not shown) [Example 135, 5-[4-(3a,7a-Dihydro-furo[3,2-b]pyridin-2-yl)-phenyl]-3-[1-methyl-5-(4-methyl-cyclohexyl)-1,2,3,6-tetrahydro-pyridin-4-yl]-thiophene-2-carboxylic acid] | > 5.52
13 | CCN1CCC(c2cc(-c3ccc(NC(=O)c4cccs4)cc3)sc2C(=O)O)=C(C2CCC(C)CC2)C1 (stereo not shown) [Example 028, 3-[1-Ethyl-5-(4-methyl-cyclohexyl)-1,2,3,6-tetrahydro-pyridin-4-yl]-5-{4-[(thiophene-2-carbonyl)-amino]-phenyl}-thiophene-2-carboxylic acid] | > 5.52
14 | CC1CCC(C2=C(c3cc(-c4ccccc4)sc3C(=O)O)CCN(Cc3nc4ncccn4n3)C2)CC1 (stereo not shown) [Example 092, 3-[5-(4-Methyl-cyclohexyl)-1-[1,2,4]triazolo[1,5-a]pyrimidin-2-ylmethyl-1,2,3,6-tetrahydro-pyridin-4-yl]-5-phenyl-thiophene-2-carboxylic acid] | 5.00 to 5.52
15 | CC1CCC(C2=C(c3cc(-c4ccccc4)sc3C(=O)O)CCN(CCC(=O)O)C2)CC1 (stereo not shown) [Example 083, 3-[1-(2-Carboxy-ethyl)-5-(4-methyl-cyclohexyl)-1,2,3,6-tetrahydro-pyridin-4-yl]-5-phenyl-thiophene-2-carboxylic acid] | 5.00 to 5.52
16 | CC1CC=C(C2=C(c3cc(-c4ccc(-c5cc6ncccn6n5)cc4)sc3C(=O)O)CCN(C)C2)CC1 (stereo not shown) [Example 070, 3-[1-Methyl-5-(4-methyl-cyclohex-1-enyl)-1,2,3,6-tetrahydro-pyridin-4-yl]-5-(4-pyrazolo[1,5-a]pyrimidin-2-yl-phenyl)-thiophene-2-carboxylic acid] | > 5.52
17 | CC1CCC(C2=C(c3cc(C#CC(C)(C)O)sc3C(=O)O)CCN(C)C2)CC1 (stereo not shown) [Example 011, 5-(3-Hydroxy-3-methyl-but-1-ynyl)-3-[1-methyl-5-(4-methyl-cyclohexyl)-1,2,3,6-tetrahydro-pyridin-4-yl]-thiophene-2-carboxylic acid] | > 5.52
18 | Cc1cc(C)n2nc(CN3CCC(c4cc(-c5ccccc5)sc4C(=O)O)=C(C4CCC(C)CC4)C3)nc2n1 (stereo not shown) [Example 088, 3-[1-(5,7-Dimethyl-[1,2,4]triazolo[1,5-a]pyrimidin-2-ylmethyl)-5-(4-methyl-cyclohexyl)-1,2,3,6-tetrahydro-pyridin-4-yl]-5-phenyl-thiophene-2-carboxylic acid] | > 5.52
19 | CC1CCC(C2=C(c3cc(C#CC(C)(C)C)sc3C(=O)O)CN(C)CC2)CC1 (stereo not shown) [Example 112, 5-(3,3-Dimethyl-but-1-ynyl)-3-[1-methyl-4-(4-methyl-cyclohexyl)-1,2,5,6-tetrahydro-pyridin-3-yl]-thiophene-2-carboxylic acid] | > 5.52
20 | CC1CCC(C2=C(c3cc(-c4ccccc4)sc3C(=O)O)CCN(C(=O)CCc3ccccc3)C2)CC1 (stereo not shown) [Example 076, 3-[5-(4-Methyl-cyclohexyl)-1-(3-phenyl-propanoyl)-1,2,3,6-tetrahydropyridin-4-yl]-5-phenyl-thiophene-2-carboxylic acid] | < 5.00
21 | COCCN1CCC(C2CCC(C)CC2)=C(c2cc(C#CC(C)(C)C)sc2C(=O)O)C1 (stereo not shown) [Example 137, 5-(3,3-Dimethyl-but-1-ynyl)-3-[1-(2-methoxy-ethyl)-4-(4-methyl-cyclohexyl)-1,2,5,6-tetrahydro-pyridin-3-yl]-thiophene-2-carboxylic acid] | < 5.00

Same assay, conditions: purified HCV1b NS5B polymerase delta 21, polyA:U16, RT 60 min, triplicate assays

Row | Structure (SMILES) | pIC50
22 | CC1CCC(C2=C(c3cc(-c4ccccc4)sc3C(=O)O)CCN(Cc3ccccc3)C2)CC1 (stereo not shown) [Example 079, 3-[1-Benzyl-5-(4-methyl-cyclohexyl)-1,2,3,6-tetrahydro-pyridin-4-yl]-5-phenyl-thiophene-2-carboxylic acid] | 5.00 to 5.52
